Measured values: patent US20040197824A1, “Method for selective radioactive marking of peptides” (priority 2002, published 2004)

Assays:
PTH1-receptor = PTH1-receptor (Homo sapiens, UniProt Q03431); assay: competitive binding study at PTH1-receptor; settings: radio ligand concentration of 1 nM; FIG. 15
Y-receptor Y2 = biological target: T1, Y-receptor Y2 (Homo sapiens, UniProt P49146); assay: competitive binding studies at the Y2 receptor; settings: FIG. 9
T1 sequence (P49146 1-381): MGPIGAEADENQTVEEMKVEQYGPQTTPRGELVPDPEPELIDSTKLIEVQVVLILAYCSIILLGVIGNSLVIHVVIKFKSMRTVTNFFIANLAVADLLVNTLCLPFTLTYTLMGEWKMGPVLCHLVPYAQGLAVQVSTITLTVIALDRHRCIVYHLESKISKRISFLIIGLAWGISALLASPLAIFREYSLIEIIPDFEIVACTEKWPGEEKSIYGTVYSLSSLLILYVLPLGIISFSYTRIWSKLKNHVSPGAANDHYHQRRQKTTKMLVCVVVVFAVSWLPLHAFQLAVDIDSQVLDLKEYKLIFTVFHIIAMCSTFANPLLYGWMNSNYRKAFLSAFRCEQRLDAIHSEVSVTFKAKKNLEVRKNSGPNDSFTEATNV
Description: (§1) The performance of the binding assays was performed as previously described.^(5)

Y-receptor Y5 = biological target: T2, Y-receptor Y5 (Homo sapiens, UniProt Q15761); assay: competitive binding studies at the Y5 receptor; settings: FIG. 9
T2 sequence (Q15761 1-445): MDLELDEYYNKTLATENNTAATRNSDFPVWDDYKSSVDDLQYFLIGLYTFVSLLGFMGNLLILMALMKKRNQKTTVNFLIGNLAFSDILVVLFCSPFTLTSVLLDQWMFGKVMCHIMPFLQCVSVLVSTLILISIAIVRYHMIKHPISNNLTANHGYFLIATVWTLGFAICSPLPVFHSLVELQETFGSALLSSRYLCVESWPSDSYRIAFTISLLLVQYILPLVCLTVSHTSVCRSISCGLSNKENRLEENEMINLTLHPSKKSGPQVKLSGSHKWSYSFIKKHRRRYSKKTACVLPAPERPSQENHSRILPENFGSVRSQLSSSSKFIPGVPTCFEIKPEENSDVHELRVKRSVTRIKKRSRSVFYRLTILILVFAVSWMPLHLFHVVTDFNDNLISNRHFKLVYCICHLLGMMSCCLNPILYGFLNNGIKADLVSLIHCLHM
Description: as §1

Y-receptor Y1 = biological target: T3, Y-receptor Y1 (Homo sapiens, UniProt P25929); assay: competitive binding studies at the Y1 receptor; settings: FIG. 9
T3 sequence (P25929 1-384): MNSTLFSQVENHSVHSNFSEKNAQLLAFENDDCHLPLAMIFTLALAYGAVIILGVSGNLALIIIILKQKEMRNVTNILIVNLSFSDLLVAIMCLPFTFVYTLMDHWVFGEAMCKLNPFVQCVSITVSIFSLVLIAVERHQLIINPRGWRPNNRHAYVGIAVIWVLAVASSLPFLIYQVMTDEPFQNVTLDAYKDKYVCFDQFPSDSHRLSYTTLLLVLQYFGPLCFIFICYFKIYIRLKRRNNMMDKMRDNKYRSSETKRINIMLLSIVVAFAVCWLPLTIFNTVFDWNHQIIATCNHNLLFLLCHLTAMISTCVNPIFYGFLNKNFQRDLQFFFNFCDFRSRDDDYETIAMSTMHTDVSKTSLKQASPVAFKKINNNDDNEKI
Description: as §1

Chain of PTH1-receptor (Q03431 27-593): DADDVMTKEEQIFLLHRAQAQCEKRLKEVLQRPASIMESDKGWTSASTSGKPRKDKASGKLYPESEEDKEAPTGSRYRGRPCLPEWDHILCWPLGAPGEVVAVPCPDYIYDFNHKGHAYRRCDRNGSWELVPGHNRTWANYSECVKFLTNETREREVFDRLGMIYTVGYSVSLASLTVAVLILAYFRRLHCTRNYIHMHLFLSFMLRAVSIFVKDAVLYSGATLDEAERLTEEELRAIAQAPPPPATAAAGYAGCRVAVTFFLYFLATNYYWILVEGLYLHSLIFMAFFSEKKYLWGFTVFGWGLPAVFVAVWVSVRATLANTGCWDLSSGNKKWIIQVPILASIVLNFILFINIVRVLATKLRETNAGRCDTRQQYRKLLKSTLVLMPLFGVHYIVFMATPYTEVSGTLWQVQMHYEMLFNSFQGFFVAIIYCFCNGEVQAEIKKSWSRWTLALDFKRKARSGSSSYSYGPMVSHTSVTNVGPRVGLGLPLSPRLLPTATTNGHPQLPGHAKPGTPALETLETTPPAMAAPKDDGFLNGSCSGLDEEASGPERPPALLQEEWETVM

Compound	behavior in competitive binding relative to non-marked PTH (1-34)-amide (PTH1-receptor)	behavior in competitive binding in comparison to commercially available ^3H-NPY (Y-receptor Y2)	behavior in competitive binding in comparison to commercially available ^3H-NPY (Y-receptor Y5)	behavior in competitive binding in comparison to commercially available ^3H-NPY (Y-receptor Y1)
[3H]CC([3H])C(=O)NCCCC[C@H](NC(=O)CNC(=O)[C@H](CC(C)C)NC(=O)[C@H](CC(N)=O)NC(=O)[C@H](Cc1c[nH]cn1)NC(=O)[C@H](CCSC)NC(=O)[C@H](CC(C)C)NC(=O)[C@H](CCC(N)=O)NC(=O)[C@@H](NC(=O)[C@H](CCC(=O)O)NC(=O)[C@H](CO)NC(=O)[C@@H](NC(=O)[C@@H](N)CO)C(C)C)[C@@H](C)CC)C(=O)N[C@@H](Cc1c[nH]cn1)C(=O)N[C@@H](CC(C)C)C(=O)N[C@@H](CC(N)=O)C(=O)N[C@@H](CO)C(=O)N[C@@H](CCSC)C(=O)N[C@@H](CCC(=O)O)C(=O)N[C@@H](CCCNC(=N)N)C(=O)N[C@H](C(=O)N[C@@H](CCC(=O)O)C(=O)N[C@@H](Cc1c[nH]c2ccccc12)C(=O)N[C@@H](CC(C)C)C(=O)N[C@@H](CCCNC(=N)N)C(=O)N[C@@H](CCCCN)C(=O)N[C@@H](CCCCN)C(=O)N[C@@H](CC(C)C)C(=O)N[C@@H](CCC(N)=O)C(=O)N[C@@H](CC(=O)O)C(=O)N[C@H](C(=O)N[C@@H](Cc1c[nH]cn1)C(=O)N[C@@H](CC(N)=O)C(=O)N[C@@H](Cc1ccccc1)C(N)=O)C(C)C)C(C)C (stereo partly shown) [PTH (1-34)-amide marked at position 13, ^3H-proprionyl-Lys^13-PTH(1-34)-amide]	nearly identical behavior	–	–	–
^3H-proprionyl-Lys^4-NPY [^3H-NPY]	–	identical behavior	identical behavior	identical behavior
